# Experimental data: US10159685B2, “Vascular calcification” (Cambridge Enterprise Limited, priority 2016, dated 2018)
# Like-named read-outs stand apart in the source and are kept apart here. Marks after values point to notes of the source that are not given here.
# Tests used:
# Format in all cases: cell-based
# [1] = tested on: human vascular smooth muscle cells (hVSMCs); experiment: o-Cresolphthalein Ca2+ assay, hVSMC Ca/P calcification model (Examples 7-9); settings: for Extracellular matrix calcification (summary statement): bovine cell and human cell in vitro vascular calcification model; for Normalised calcium levels (mass of calcium per mass of protein, FIG. 22) / Inhibition of calcification, normalised results (FIG. 27): 8 days; for Normalised calcium levels (mass of calcium per mass of protein, FIG. 22): 3 μM; for Inhibition of calcification, normalised results (FIG. 27): concentrations between 0.05 μM and 3 μM
# Experimental: Primary hVSMCs were cultured in M199 media containing FBS (M199/5% FBS). They were plated at a known cell density, allowed to grow for 24 hours and then treated with control (DMSO only) or calcification media (DMSO containing 2.7 mM Calcium+2.5 mM phosphate)+/−inhibitors. After 6 days, calcification was assessed using the o-Cresolphthalein assay for quantification of Ca^2+ deposition and a BioRad protein assay for protein content.
# Medium+/−inhibitors was exchanged every 2-3 days.
# Primary hVSMCs were cultured in M199 media containing FBS (M199/5% FBS). They were plated at a known cell density, allowed to grow for 24 hours and then treated with control (DMSO only) or calcification media (DMSO containing 2.7 mM Calcium+2.5 mM phosphate)+/−inhibitors. After 8 days, calcification was assessed using o-Cresolphthalein assay for quantification of Ca^2+ deposition and a BioRad protein assay for protein content.
# All of the compounds tested were used at a concentration of 3 μM. Medium+/−inhibitors was exchanged every 2-3 days.
# Primary hVSMCs were cultured in M199 media containing FBS (M199/5% FBS). They were plated at a known cell density, allowed to grow for 24 hours and then treated with control (DMSO only) or calcification media (DMSO containing 2.7 mM Calcium+2.5 mM phosphate)+/−compounds. After 8 days, calcification was assessed using o-Cresolphthalein assay for quantification of Ca^2+ deposition and a BioRad protein assay for protein content.
# These concentrations were chosen to mimic the systemic concentrations of these drugs following patient dosing according to the dose schedule in the prescribing information for each drug. Medium+/−inhibitors was exchanged every 2-3 days.
# [2] = tested on: bovine vascular smooth muscle cells (bVSMCs); settings: 7 days; for Cell viability of bVSMCs after seven days (MTT signal, relative to control): mean of three experiments
# Experimental: The toxicity of the identified compounds to bovine VSMCs was measured using the MTT assay, which measures the activity of dehydrogenase enzymes of live cells. This assay can pick up both cell death and proliferation.
# Bovine VSMCs were seeded in 96 well plates and cultured in M199/20% FCS for 1 day. Then, the cells were incubated with inhibitor concentrations from 0.5 to 100 μM (in M199 medium+5% FBS). The cells were incubated with the inhibitors for 7 days; every 2-3 days the medium −/+inhibitors was exchanged. Then, the MTT assay was performed. The stock vehicle DMSO was tested at corresponding concentrations to the inhibitors at 0.1% DMSO or less.
# [3] = tested on: human monocyte-macrophages (HMMs); experiment: MTT toxicity assay, HMMs, seven days (Example 3); settings: 7 days; for Cell viability by MTT, percent of control: mean of three experiments; for Toxicity to HMMs (in words): at a concentration of 100 μM
# Experimental: A similar set of toxicity experiments was performed with human monocyte-macrophages (HMMs).
# [4] = tested on: bovine vascular smooth muscle cells (bVSMCs); experiment: o-Cresolphthalein Ca2+ assay, bVSMC GAD calcification model (Examples 4 and 5); settings: GAD-treated bVSMCs, 10 μM, 7 d
# Experimental: For the bVSMCs a GAD medium (10 mM β-glycerophosphate/0.1 mM L-ascorbic acid-2-phosphate/10 nM dexamethasone) model was used to induce mineralization in bVSMCs. Accordingly, cells were seeded in tissue culture plates using M199/20% FCS culture medium and cultured overnight. The next day, cells were treated either with medium only (M199/5% FBS)+/−inhibitors, or with the GAD-medium (10 mM β-glycerophosphate/0.1 mM L-ascorbic acid-2-phosphate/[…] dexamethasone)+/−inhibitors.
# Medium+/−inhibitors was exchanged every 2-3 days. […]
# The o-Cresolphthalein assay is a spectrophotometric method for measuring Ca^2+-concentrations in cell/tissue lysates. Following the calcification experiments, cells are briefly washed to remove medium and 100 […]1 of 0.1 N HCl is added to each well to dissolve any mineral deposits. Then, the Ca^2+-concentration of the samples is measured spectrophotometrically (at 570 nm) in the o-cresolphthalein assay with the help of a CaCl2 standard curve in a concentration range of ˜0.02-270 µg Ca^2+/ml.
# The commercial BioRad DC protein assay is based on the Lowry method, aka reaction of proteins with a copper-tartrate complex and subsequent reaction with Folin's reagent. Following the calcification experiment, cells are briefly washed to remove medium and 100 µl of solubilisation solution (0.1 M NaOH/1% SDS/DIW) is added to each well to lyse the cells. The protein concentrations of the lysates are subsequently determined in the BioRad DC assay as per supplier's instructions using BSA (bovine serum albumin) as standard.
# The in vitro model is the same as the model used in example 4; bovine vascular smooth muscle cells (bVSMCs) cultured so that they produce extracellular matrix, with the addition of the GAD medium (10 mM β-glycerophosphate/0.1 mM L-ascorbic acid-2-phosphate/10 nM dexamethasone).
# As above, cells were treated either with medium only (“no-additions”; NA)+/−inhibitors, or with the GAD-medium+/−inhibitors. The inhibitors used were PJ34 and minocyclin (MC) at 10 μM, 1 μM and 0.1 μM.
# The methodology was the same as that described in example 4.
# [5] = hVSMCs, 6 days, PJ34 10 μM, minocycline and cilostazol 0.5, 1 and 2 μM
smiles,measurement,setting,value
O=C(c1cc(Cc2n[nH]c(=O)c3ccccc23)ccc1F)N1CCN(C(=O)C2CC2)CC1 [olaparib],Extracellular matrix calcification (summary statement),[1],significantly reduce extracellular matrix calcification
O=C1CCc2cc(OCCCCc3nnnn3C3CCCCC3)ccc2N1 [cilostazol],"Cell viability of bVSMCs after seven days (MTT signal, relative to control)",[2]; 0.5 uM,98.22
same,"Cell viability of bVSMCs after seven days (MTT signal, relative to control)",[2]; 1 uM,93.93
same,"Cell viability of bVSMCs after seven days (MTT signal, relative to control)",[2]; 2 uM,86.31*
same,"Cell viability of bVSMCs after seven days (MTT signal, relative to control)",[2]; 5 uM,86.87*
same,"Cell viability of bVSMCs after seven days (MTT signal, relative to control)",[2]; 10 uM,88.38*
same,"Cell viability of bVSMCs after seven days (MTT signal, relative to control)",[2]; 20 uM,90.45*
same,"Cell viability of bVSMCs after seven days (MTT signal, relative to control)",[2]; 50 uM,84.93*
same,"Cell viability of bVSMCs after seven days (MTT signal, relative to control)",[2]; 100 uM,65.21*
same,"Toxicity to bVSMCs (MTT assay, in words)",[2]; at 50 and 100 μM,toxic
same,"Cell viability by MTT, percent of control",[3]; 0.5 uM,105.05
same,"Cell viability by MTT, percent of control",[3]; 1 uM,103.62
same,"Cell viability by MTT, percent of control",[3]; 2 uM,75.63
same,"Cell viability by MTT, percent of control",[3]; 5 uM,90.74
same,"Cell viability by MTT, percent of control",[3]; 10 uM,79.83
same,"Cell viability by MTT, percent of control",[3]; 20 uM,81.50
same,"Cell viability by MTT, percent of control",[3]; 50 uM,73.73
same,"Cell viability by MTT, percent of control",[3]; 100 uM,77.06
same,Toxicity to HMMs (in words),[3],relatively innocuous
same,"Calcium levels (mass of calcium, FIG. 7B) compared to no inhibitors",[4],no effect
same,"Normalised calcium levels (mass of calcium per mass of protein, FIG. 9B)",[4],does not appear to have an effect
same,Extracellular matrix calcification (summary statement),[1],significantly reduce extracellular matrix calcification
same,"Calcium levels (mass of calcium, FIG. 17) versus DMSO Ca+P positive control",[1]; [5],reduce the calcium levels
same,"Normalised calcium levels (mass of calcium per mass of protein, FIG. 19)",[1]; [5],lower calcium levels significantly
same,"Normalised calcium levels (mass of calcium per mass of protein, FIG. 22)",[1]; hVSMCs,particularly effective
same,"Inhibition of calcification, normalised results (FIG. 27)",[1]; hVSMCs,inhibit calcification significantly and repeatedly
NC(=O)c1cccc2cn(-c3ccc([C@@H]4CCCNC4)cc3)nc12 [niraparib],Extracellular matrix calcification (summary statement),[1],significantly reduce extracellular matrix calcification
same,"Normalised calcium levels (mass of calcium per mass of protein, FIG. 22)",[1]; hVSMCs,particularly effective
CNCc1ccc(-c2[nH]c3cc(F)cc4c3c2CCNC4=O)cc1 [rucaparib],Extracellular matrix calcification (summary statement),[1],significantly reduce extracellular matrix calcification
same,"Normalised calcium levels (mass of calcium per mass of protein, FIG. 22)",[1]; hVSMCs,particularly effective
C[C@]1(c2nc3c(C(N)=O)cccc3[nH]2)CCCN1 [veliparib],Extracellular matrix calcification (summary statement),[1],significantly reduce extracellular matrix calcification
same,"Normalised calcium levels (mass of calcium per mass of protein, FIG. 22)",[1]; hVSMCs,particularly effective
same,"Inhibition of calcification, normalised results (FIG. 27)",[1]; hVSMCs,inhibit calcification significantly and repeatedly
"COc1ccc([C@@H]2Sc3ccccc3N(CCN(C)C)C(=O)[C@@H]2OC(C)=O)cc1 [Diltiazem, diltiazem]","Cell viability of bVSMCs after seven days (MTT signal, relative to control)",[2]; 0.5 uM,98.78
same,"Cell viability of bVSMCs after seven days (MTT signal, relative to control)",[2]; 1 uM,96.07
same,"Cell viability of bVSMCs after seven days (MTT signal, relative to control)",[2]; 2 uM,89.48*
same,"Cell viability of bVSMCs after seven days (MTT signal, relative to control)",[2]; 5 uM,91.88*
same,"Cell viability of bVSMCs after seven days (MTT signal, relative to control)",[2]; 10 uM,94.54
same,"Cell viability of bVSMCs after seven days (MTT signal, relative to control)",[2]; 20 uM,113.60*
same,"Cell viability of bVSMCs after seven days (MTT signal, relative to control)",[2]; 50 uM,143.28*
same,"Cell viability of bVSMCs after seven days (MTT signal, relative to control)",[2]; 100 uM,119.64*
same,Stimulatory effect on bVSMCs (MTT assay),[2]; at 20 μM and above,stimulatory effect
same,"Toxicity to bVSMCs (MTT assay, in words)",[2]; at the concentrations tested (0.5 to 100 μM),non-toxic
same,"Cell viability by MTT, percent of control",[3]; 0.5 uM,97.10
same,"Cell viability by MTT, percent of control",[3]; 1 uM,104.94
same,"Cell viability by MTT, percent of control",[3]; 2 uM,99.61
same,"Cell viability by MTT, percent of control",[3]; 5 uM,91.09
same,"Cell viability by MTT, percent of control",[3]; 10 uM,92.45
same,"Cell viability by MTT, percent of control",[3]; 20 uM,100.42
same,"Cell viability by MTT, percent of control",[3]; 50 uM,92.16
same,"Cell viability by MTT, percent of control",[3]; 100 uM,53.65*
same,Toxicity to HMMs (in words),[3],most toxic
same,"Calcium levels (mass of calcium, FIG. 7B) compared to no inhibitors",[4],lower calcium levels
same,"Normalised calcium levels (mass of calcium per mass of protein, FIG. 9B)",[4],slightly lower calcium levels
CCCCc1nc(Cl)c(CO)n1Cc1ccc(-c2ccccc2-c2nn[nH]n2)cc1 [losartan],"Inhibition of calcification, normalised results (FIG. 27)",[1]; hVSMCs,do not inhibit medial vascular calcification
Cn1ncnc1[C@H]1c2n[nH]c(=O)c3cc(F)cc(c23)N[C@@H]1c1ccc(F)cc1 [talazoparib],Extracellular matrix calcification (summary statement),[1],significantly reduce extracellular matrix calcification
CC(C)c1c(C(=O)Nc2ccccc2)c(-c2ccccc2)c(-c2ccc(F)cc2)n1CC[C@@H](O)C[C@@H](O)CC(=O)O [atorvastatin],"Inhibition of calcification, normalised results (FIG. 27)",[1]; hVSMCs,do not inhibit medial vascular calcification
